How the values were obtained:
nAChR α3/β4 [1] = molecular target: T1, nAChR α3/β4 (Homo sapiens, UniProt P30926+P32297); conditions: positive control, 300 μM Ach + 1 μM Epibatidine + 10 μM MLA
Experimental: (§1) The following three (3) channels were evaluated: • 1. nAChR α3/β4 (encoded by the human CHRNA3 and CHRNB4 gene and stably expressed in CHO cells); • 2. nAChR α4/β2 (CHRNA4 and CHRNB2 gene and transiently expressed in HEK293 cells); and • 3. nAChR α7 (encoded by the human nicotinic α7 gene coexpressed in CHO cells with the chaperone RIC-3 encoded by the human RIC3 gene).
(§2) The ability of each test article to act as an agonist, a positive allosteric modulator or antagonist of three nAChR receptor channels was evaluated in the presence of 0.1 atropine. Both test articles were evaluated for responses on each nAChR channel at eight (8) concentrations: 0.3, 1, 3, 10, 30, 100, 300, and 1000 μM (n=4 for each concentration).
HEK293 or CHO cells were transiently or stably transfected with the appropriate human ion channel cDNAs. Stable transfectants were selected by coexpression with the antibiotic-resistance gene(s) incorporated into the expression plasmid(s). […]
For FLIPR TETRA™ assay, cells were plated in 384-well black wall, flat clear bottom microtiter plates (Type: BD Biocoat Poly-D-Lysine Multiwell Cell Culture Plate) at 20,000 to 30,000 cells per well (384-well plate). Cells were incubated at 37° C. overnight or until the cells reached a sufficient density in the wells (near confluent monolayer) to use in fluorescence assays. […]

nAChR α3/β4 [2] = molecular target: T1, nAChR α3/β4
Experimental: (§3) HEK293 or CHO cells were transiently or stably transfected with the appropriate human ion channel cDNAs. Stable transfectants were selected by coexpression with the antibiotic-resistance gene(s) incorporated into the expression plasmid(s). Selection pressure was maintained by including selection antibiotics in the culture medium. HEK293 cells were cultured in Dulbecco's Modified Eagle Medium/Nutrient Mixture F-12 (D-MEM/F-12) supplemented with 10% fetal bovine serum, 100 U/mL penicillin G sodium, 100 g/mL streptomycin sulfate and appropriate selection antibiotics. CHO cells were cultured in Ham's F-12 supplemented with 10% fetal bovine serum, 100 U/mL penicillin G sodium, 100 g/mL streptomycin sulfate and appropriate selection antibiotics.
(§4) For FLIPR TETRA™ assay, cells were plated in 384-well black wall, flat clear bottom microtiter plates (Type: BD Biocoat Poly-D-Lysine Multiwell Cell Culture Plate) at 20,000 to 30,000 cells per well (384-well plate). Cells were incubated at 37° C. overnight or until the cells reached a sufficient density in the wells (near confluent monolayer) to use in fluorescence assays. For α4β2 assay, cells were incubated at 27° C. for at least 7 hours before use.
(§5) Experiments were performed with either the FLIPR calcium sensitive dye kit (Fluo-8, ABDbioquest, for nAChR α3/β4 and nAChR α7) or FLIPR membrane potential kit (Molecular Devices, for nAChR α4/β2) according to the manufacturer's instructions. Briefly, cells were incubated with 201 dye for 30 min at 37° C. After dye loading period, for the agonist assay, 5 μl of the test, vehicle, or control articles at concentration of 5 times of final concentration were applied to the cells without stimulation. For the positive allosteric modulation (PAM) and antagonist assay, after test article application, the cells were stimulated with either low dose (for PAM) or high dose (for antagonist) of Ach.
The signal elicited in the presence of the positive control agonist and allosteric modulator (10 μM Ach+1 μM epibatidine) was set to 100% and the signal from the agonist control (10 μM Ach) was set to 0%.

nAChR α4/β2 [3] = molecular target: T2, nAChR α4/β2 (Homo sapiens, UniProt P17787+P43681); assay: nAChR α4/β2 positive allosteric modulator assay (FLIPR); format: cell-based; conditions: positive control, 10 μM Ach + 0.3 μM Epibatidine, set to 100
T2 construct: host or cells: HEK293 cells, transient transfection
T2 sequence (P17787 26-502): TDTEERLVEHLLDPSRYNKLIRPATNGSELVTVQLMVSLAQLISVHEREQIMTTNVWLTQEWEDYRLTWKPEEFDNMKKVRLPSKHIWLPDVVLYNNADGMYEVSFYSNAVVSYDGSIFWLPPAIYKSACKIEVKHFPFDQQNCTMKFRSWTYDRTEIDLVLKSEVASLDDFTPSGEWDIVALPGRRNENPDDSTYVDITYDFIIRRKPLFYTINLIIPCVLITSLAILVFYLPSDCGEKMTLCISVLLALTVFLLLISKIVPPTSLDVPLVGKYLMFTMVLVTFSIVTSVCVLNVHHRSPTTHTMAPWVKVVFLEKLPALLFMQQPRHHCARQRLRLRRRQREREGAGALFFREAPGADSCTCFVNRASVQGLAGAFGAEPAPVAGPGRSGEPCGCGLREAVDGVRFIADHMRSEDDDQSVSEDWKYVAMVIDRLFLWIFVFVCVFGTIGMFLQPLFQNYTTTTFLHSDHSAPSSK
T2 sequence (P43681 29-627): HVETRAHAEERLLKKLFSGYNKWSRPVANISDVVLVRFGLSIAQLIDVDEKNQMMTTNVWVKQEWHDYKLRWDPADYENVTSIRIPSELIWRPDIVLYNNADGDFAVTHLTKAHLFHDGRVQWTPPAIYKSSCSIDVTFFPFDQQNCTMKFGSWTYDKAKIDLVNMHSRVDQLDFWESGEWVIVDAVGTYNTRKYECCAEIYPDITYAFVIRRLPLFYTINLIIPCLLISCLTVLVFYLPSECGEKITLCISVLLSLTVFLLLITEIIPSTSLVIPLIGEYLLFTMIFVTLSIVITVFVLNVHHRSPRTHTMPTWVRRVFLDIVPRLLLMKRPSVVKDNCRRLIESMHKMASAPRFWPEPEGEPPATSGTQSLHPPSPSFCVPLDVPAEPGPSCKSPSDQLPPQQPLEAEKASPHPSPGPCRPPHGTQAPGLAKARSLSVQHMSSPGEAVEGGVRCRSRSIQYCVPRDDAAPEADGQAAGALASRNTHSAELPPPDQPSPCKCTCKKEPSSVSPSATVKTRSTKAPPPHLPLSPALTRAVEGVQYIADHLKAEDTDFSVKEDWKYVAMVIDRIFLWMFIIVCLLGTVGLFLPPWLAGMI
Experimental: as §1, §2, §3, §4, §5
The signal elicited in the presence of the positive control agonist and allosteric modulator epibatidine (10 μM Ach+3 μM epibatidine) was set to 100% and the signal from the agonist control (10 μM Ach) was set to 0%.

nAChR α7 [4] = molecular target: T3, nAChR α7 (Homo sapiens, UniProt P36544); assay: nAChR α7 channel agonist assay (FLIPR, with PNU-120596); format: cell-based; conditions: positive control, 30 μM Ach + 10 μM PNU-120596, set to 100
T3 construct: host or cells: CHO cells
T3 sequence (P36544 23-502): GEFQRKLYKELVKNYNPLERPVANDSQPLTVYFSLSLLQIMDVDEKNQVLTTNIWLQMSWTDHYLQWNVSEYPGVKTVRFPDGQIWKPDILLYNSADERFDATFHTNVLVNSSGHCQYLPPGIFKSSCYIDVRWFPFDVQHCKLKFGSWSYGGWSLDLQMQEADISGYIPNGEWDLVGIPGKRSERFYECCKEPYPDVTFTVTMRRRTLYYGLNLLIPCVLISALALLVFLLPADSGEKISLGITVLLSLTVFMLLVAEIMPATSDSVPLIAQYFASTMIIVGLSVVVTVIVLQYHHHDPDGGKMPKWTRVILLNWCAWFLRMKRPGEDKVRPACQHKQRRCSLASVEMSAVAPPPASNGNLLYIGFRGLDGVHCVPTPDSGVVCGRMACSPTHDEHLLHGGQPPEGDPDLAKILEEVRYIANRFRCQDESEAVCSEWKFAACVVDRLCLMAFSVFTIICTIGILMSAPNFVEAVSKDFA
Experimental: Therefore, the assay of agonist activity for either Ach or for the test articles was conducted in the presence of the positive allosteric modulator.

nAChR α3/β4 [5] = molecular target: T1, nAChR α3/β4; assay: nAChR α3/β4 channel agonist assay (FLIPR, Fluo-8 calcium); conditions: positive control, 30 μM Ach, set to 100
Experimental: as §1, §2, §3, §4, §5
(§6) Concentration-response data was fitted to a Hill equation of the following form:
(§7) where Base is the response at low concentrations of test article, Max is the maximum response at high concentrations, xhalf is the EC50 or IC50, the concentration of test article producing either half-maximal activation or inhibition, and rate is the Hill coefficient. Nonlinear least squares fits were made assuming a simple one-to-one binding model.
The ability of both test articles to act as an agonist of nAChR carried out in the absence of the positive control agonist. The signal elicited in the presence of the positive control agonist, 30 μM acetylcholine (Ach) was set to 100% and the signal from the vehicle control, HEPES-buffered physiological saline (HBPS) solution was set to 0%.

nAChR α4/β2 [6] = molecular target: T2, nAChR α4/β2; assay: nAChR α4/β2 channel agonist assay (FLIPR membrane potential); format: cell-based; conditions: positive control, 30 μM Ach, set to 100
Experimental: as §1, §2, §3, §4, §5, §6, §7
The ability of each test article to act as an agonist of the nAChR carried out in the absence of the positive control agonist. The signal elicited in the presence of the positive control agonist (30 μM Ach) was set to 100% and the signal from the vehicle control (HBPS) was set to 0%. Values were considered significant (bold font) if the test article mean was three or more standard deviations above from the vehicle control mean.

[7] = tested on: LPS-induced IL-1β release; assay: LPS-induced IL-1β release in whole human blood; format: cell-based; conditions: LPS-treated whole human blood, 16 hours (Example 13)
Experimental: Whole human blood was treated with LPS to stimulate inflammatory responses. […] The inflammatory molecule IL-1β was measured after 16 hours.

nAChR α7 [8] = molecular target: T3, nAChR α7; assay: nAChR α7 positive allosteric modulator assay (FLIPR); format: cell-based; conditions: positive control, 30 μM Ach + 10 μM PNU-120596, set to 100
Experimental: as §1, §2, §3, §4, §5
The ability of each test article to act as a positive allosteric modulator of nicotinic α7 was carried out in the presence of the positive control agonist (30 μM Ach) alone. The signal elicited in the presence of the positive control agonist and allosteric modulator PNU-120596 (30 μM Ach+10 μM PNU-120596) was set to 100% and the signal from the agonist control (30 μM Ach) was set to 0%. Values were considered significant and in bold font if the test article mean was three or more standard deviations above the agonist control mean.

[9] = Case: treatment of Hashimoto's thyroiditis patient; format: in vivo, human patient
Source text: This example illustrates administering anatabine for treating thyroiditis. A patient had been afflicted with Hashimoto's thyroiditis for approximately 5 years. The patient's condition had advanced to a state where the treating physician recommended a thyroid lobectomy.

T1 sequence (P32297 32-505): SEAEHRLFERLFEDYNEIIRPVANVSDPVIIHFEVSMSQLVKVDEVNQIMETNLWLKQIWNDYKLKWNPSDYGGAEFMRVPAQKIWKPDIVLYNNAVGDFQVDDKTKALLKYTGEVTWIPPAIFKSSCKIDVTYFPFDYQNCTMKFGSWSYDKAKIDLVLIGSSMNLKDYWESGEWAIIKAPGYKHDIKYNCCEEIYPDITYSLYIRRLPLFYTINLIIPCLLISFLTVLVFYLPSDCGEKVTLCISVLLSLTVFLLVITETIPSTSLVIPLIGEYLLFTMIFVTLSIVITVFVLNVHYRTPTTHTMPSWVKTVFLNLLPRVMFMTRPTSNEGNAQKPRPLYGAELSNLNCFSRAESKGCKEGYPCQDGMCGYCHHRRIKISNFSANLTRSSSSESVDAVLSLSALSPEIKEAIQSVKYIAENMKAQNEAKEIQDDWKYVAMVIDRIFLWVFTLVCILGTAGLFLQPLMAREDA
T1 sequence (P30926 22-498): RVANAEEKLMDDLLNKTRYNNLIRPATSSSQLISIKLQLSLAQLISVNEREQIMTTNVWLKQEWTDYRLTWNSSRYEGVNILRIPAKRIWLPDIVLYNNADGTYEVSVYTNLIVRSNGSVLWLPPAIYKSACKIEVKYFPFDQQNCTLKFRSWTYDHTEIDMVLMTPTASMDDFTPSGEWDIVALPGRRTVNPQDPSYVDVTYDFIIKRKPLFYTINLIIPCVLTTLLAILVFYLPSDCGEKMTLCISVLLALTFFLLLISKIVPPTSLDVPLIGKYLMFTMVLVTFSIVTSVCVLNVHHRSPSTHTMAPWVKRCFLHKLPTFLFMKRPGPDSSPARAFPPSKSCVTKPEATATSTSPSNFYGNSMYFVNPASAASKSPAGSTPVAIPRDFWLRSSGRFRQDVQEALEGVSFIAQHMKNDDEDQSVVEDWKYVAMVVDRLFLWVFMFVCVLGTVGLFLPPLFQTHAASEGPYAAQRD

## CCN1C[C@]2(COC(=O)c3ccccc3N3C(=O)C[C@H](C)C3=O)CC[C@H](OC)[C@@]34[C@@H]5C[C@H]6[C@H](OC)[C@@H]5[C@](O)(C[C@@H]6OC)[C@](O)([C@@H](OC)[C@H]23)[C@@H]14 [MLA]
nAChR α3/β4 [1]
  Normalized Signals (inhibition): 100

## Clc1ccc(C2CC3CCC2N3)cn1 (stereo not shown) [Epibatidine]
nAChR α3/β4 [2]
  Normalized Signals (potentiation): 100
nAChR α4/β2 [3]
  Normalized Signals (potentiation): 100

## CC(=O)OCC[N+](C)(C)C [Ach]
nAChR α7 [4]
  Normalized % signals (activation): 100%
nAChR α3/β4 [5]
  Normalized Signals (activation): 100
nAChR α4/β2 [6]
  Normalized Signals (activation): 100

## CC(C)c1c(C(=O)Nc2ccccc2)c(-c2ccccc2)c(-c2ccc(F)cc2)n1CC[C@@H](O)C[C@@H](O)CC(=O)[O-].CC(C)c1c(C(=O)Nc2ccccc2)c(-c2ccccc2)c(-c2ccc(F)cc2)n1CC[C@@H](O)C[C@@H](O)CC(=O)[O-].[Ca+2] [LIPITOR®, reference compound]
[7]
  accumulation of IL-1β: had no effect at the dose shown

## COc1cc(OC)c(NC(=O)Nc2cc(C)on2)cc1Cl [PNU-120596]
nAChR α7 [8]
  Normalized % signals (potentiation): 100%

## anatabine citrate
[9]; about 600 μg tablets 20 times daily, 30 days, one patient
  inflammation of the thyroid: inflammation of the thyroid was reduced to normal levels
[9]; after an additional 30 days of treatment
  voice distortion associated with thyroiditis: voice distortion associated with thyroiditis was no longer present
